Like-named read-outs stand apart in the source and are kept apart here.
Tests used:
[1] = target: vancomycin-susceptible receptor (VSR); experiment: Cantilever surface stress assay, antibiotic binding to surface-bound VSR
Text: (§1) To probe different pathways of signal-transduction central to the efficacy of recognition mechanisms and therapeutic agents, we used cantilever force-based technology. Because of its nanometre strain sensitivity, this technology can directly measure the smallest changes in mechanical strain caused by specific antibiotic binding. The principles of force transduction and measurements are well established[18][19][20] and many studies focused on cantilever sensors have been published. Unlike conventional methods such as 1H–NMR spectroscopy, enzyme-linked immunosorbent assays (ELISA)[29] or surface plasmon resonance (SPR)[30] which measure optical signatures of chemical binding, cantilever technology has the capacity to resolve forces at the level of individual hydrogen bonds, making it uniquely suited to provide important insight into force transduction mechanisms, such as cell wall strain in response to antibiotic binding. Moreover, in contrast to direct current or low-frequency signals, which cannot probe beyond electrical double layers formed by screening salts, mechanical signaling is sensitive to ligands even when they are located at distance of ~1 nm or more from the sensor surface (Fig. 1d). Measurements were performed using cantilevers functionalized with self-assembled monolayers (SAM) of VSR, VRR or reference polyethylene glycol (PEG) (see methods & materials, Supplementary Information). The specificity of mechanical signaling was achieved by performing measurements in differential mode, where the bending response of the reference PEG-coated cantilevers, (known to reduce nonspecific drug adsorption[8][14][34]) was subtracted from VSR- and VRR-coated cantilever signals (see cantilever measurement procedure, method section).
(§2) Thus far, we have discussed the impact of near-membrane layer on the association kinetics, mechanical force transduction, specificity of molecular recognition and microbial susceptibility. To gain mechanistic insight (Fig. 7a,b), we averaged measurements for each drug-target interaction over four separate chips and the results are summarized in Fig. 7c,d. […] The mechanical signaling response follows an s-shaped curve undergoing its steepest rise at N ~1/Ksurf before reaching a plateau when the binding sites are fully occupied (Fig. 7c,d). To calculate Ksurf, we used equation (2)[14], based on the conventional Hill adsorption model.
(§3) Here, Ksurf is raised to the power n to ensure that it maintains the dimension of concentration as n varies. Setting n = 1 yields the Langmuir isotherm where the reactions occur independently, while n > 1 corresponds to positive co-operative polyvalent interactions and n < 1 is a measure of negative co-operativity. In Fig. 7c,d, we find that the mechanical response at VSR levels off at 50 μM concentration for all antibiotics. In contrast, for the drug-resistant VRR a concentration of more than 1000 μM of Van, Rist or CE was required to reach indistinguishable maximum signals. The outcome of the fit using three parameters (n, Ksurf and σmax) is summarized in Supplementary Fig. 2. The calculated Ksurf for Ori binding to VSR is 40 ± 10 nM, which is 25 times stronger than for Van where Ksurf is 1.0 ± 0.3 μM. The Ksurf of Ori against VRR is 70 ± 10 nM, an astonishing 11,000 times stronger than for Van where Ksurf is 800 ± 300 μM. As a further measurement control and to confirm the accuracy of surface binding affinity, we used a commercially available SPR method (Fig. 7e,f and Supplementary SPR sensor chip functionalization procedure), where the detection of ligands is at a single planar metal surface.
(§4) The modified cantilever chip was mounted in a sealed liquid cell. The alignment of each light source onto the free end of each cantilever was confirmed by heating liquid chamber to 1 °C rise. […]

[2] = system: vancomycin-resistant receptor (VRR); experiment: Cantilever surface stress assay, antibiotic binding to surface-bound VRR
Text: as §1, §2, §3, §4

[3] = system: methicillin-susceptible Staphylococcus aureus (MSSA) ATCC 29213; experiment: MIC by broth microdilution (CLSI M07-A8), with PS80; assay type: cell-based; conditions: MSSA ATCC 29213, with PS80
Description: Determination of MIC values to methicillin-susceptible Staphylococcus aureus (MSSA).
Minimum Inhibitory Concentration (MIC) is defined as the lowest concentration of antibacterial agent required to inhibit growth of a microorganism after incubation. The antibiotics vancomycin (Van) and ristomycin (Rist) were obtained from Sigma-Aldrich while chloroeremomycin (CE) and oritavancin (Ori) were obtained from the Medicine Company Inc., U.S.A. To prepare antibiotic stock solutions for MICs assay, 5 mg/ml of each drug was dissolved in water containing an appropriate volume of 0.002% polysorbate-80 or PS80 obtained from Sigma-Aldrich which corresponds to 20 µM to eliminate nonspecific interactions of drugs to surfaces particularly for Ori which is known to bind to glass and plastics13. Microbiological broth with PS80 maintained at 20 µM was used in the drug dilution steps until the required final (assay) concentration. Diluted concentrations of each drug were assayed by adding an inoculum of methicillin-susceptible Staphylococcus aureus (MSSA) ATCC 29213 cells and the MIC determined by broth microdilution according to Clinical Laboratory Standards Institute (CLSI) methodology M07-A8 (CLSI 2009a)14. The results as shown in Supplementary Table S2 for each antibiotic against clinical isolate of MSSA ATCC 29213 strains conducted in the presence of […]
PS80 are within the quality control ranges defined in the guideline15. […]

[4] = target: vancomycin-susceptible receptor (VSR); conditions: ref. 4 (Rist), ref. 3 (CE), supplementary references, read-out: Ksurf SPR; cited from earlier work
[5] = target: vancomycin-resistant receptor (VRR); conditions: ref. 3 (Van), ref. 5 (Rist), ref. 4 (CE), supplementary references, read-out: Ksurf SPR; cited from earlier work
VSR (Ac-VSR) in solution = conditions: VSR in solution; ref. 1 (Van, Rist), ref. 7 (CE), ref. 2 (Ori), supplementary references; read-out: Ksurf Solution; cited from earlier work
VRR in solution = conditions: ref. 1 (Van), ref. 6 (Rist), ref. 8 (CE), ref. 2 (Ori), supplementary references, read-out: Ksurf Solution; cited from earlier work
[6] = ligand-ligand dissociation constant in solution; ref. 2 (Van, CE, Ori), ref. 5 (Rist), supplementary references; read-out: K1 Solution (complex aggregation constant); cited from earlier work
[7] = system: vancomycin resistant E. faecalis (VRE); conditions: absence of polysorbate-80; ref. 2 (Van), ref. 5 (Rist, CE), ref. 9 (Ori), supplementary references; cited from earlier work
[8] = system: vancomycin susceptible E. faecalis (VSE); conditions: absence of polysorbate-80; ref. 9 (Van, CE, Ori), ref. 10 (Rist), supplementary references; cited from earlier work

For ristomycin, the Kd ([1]; VSR on cantilever, fit of equation (2), pH 7.4 sodium phosphate buffer, read-out: Ksurf Cantilever (surface equilibrium dissociation constant)) was 0.9 ± 0.5 µM, the “maximum stress data, Mean” value ([1]; VSR, 4 chips, one-way ANOVA table S5) was 34.5 and the “Mean difference of stress, VSR versus VRR” value ([1]; independent samples t-test, 4 chips, table S6) was 27.0. For the same substance, the compressive surface stress ([2]; 10 μM antibiotic against VRR) was ~ 2 mNm^−1, the “concentration required to reach indistinguishable maximum signals” value ([2]; VRR) was “more than 1000 μM” and the Kd ([2]; VRR on cantilever, fit of equation (2), pH 7.4 sodium phosphate buffer, read-out: Ksurf Cantilever (surface equilibrium dissociation constant)) was 32 ± 17 µM. The “maximum stress data, Mean” value ([2]; VRR, 4 chips, one-way ANOVA table S4) was 7.5, the MIC [3] was 8.0 µg/mL and the MIC ([3]; converted from mg/l) was 3.69 µM. The Kd [4] was 0.2 µM, the Kd [5] was 6.7 µM and the Kd (VSR (Ac-VSR) in solution) was 1.7 µM. For the same substance, the Kd (VRR in solution) was 3850 µM, the Kd [6] was 3000 µM and the “MIC VRE” value [7] was 512 µg/mL. The “MIC VSE” value [8] was 12.5 µg/mL.

Source: paper PMC5290737, “Surface mediated cooperative interactions of drugs enhance mechanical forces for antibiotic action” (Scientific Reports, 2017)
